Reference: publication PMC4085797, “Synthetic Inositol Phosphate Analogs Reveal that PPIP5K2 Has a Surface-Mounted Substrate Capture Site that Is a Target for Drug Discovery” (Chemistry & Biology, 2014)
Where a chain is given by its changes, count along the chain named.

Assays:
Format in all cases: biochemical
PPIP5K2^KD E192G mutant = target: T1, PPIP5K2^KD E192G mutant (Homo sapiens, UniProt O43314, E192G); experiment: ATPase activity of E192G mutant
T1 construct: The kinase domain of human PPIP5K2 (PPIP5K2^KD; residues 1–366); made in house
T1 sequence (O43314 1-366 E192G): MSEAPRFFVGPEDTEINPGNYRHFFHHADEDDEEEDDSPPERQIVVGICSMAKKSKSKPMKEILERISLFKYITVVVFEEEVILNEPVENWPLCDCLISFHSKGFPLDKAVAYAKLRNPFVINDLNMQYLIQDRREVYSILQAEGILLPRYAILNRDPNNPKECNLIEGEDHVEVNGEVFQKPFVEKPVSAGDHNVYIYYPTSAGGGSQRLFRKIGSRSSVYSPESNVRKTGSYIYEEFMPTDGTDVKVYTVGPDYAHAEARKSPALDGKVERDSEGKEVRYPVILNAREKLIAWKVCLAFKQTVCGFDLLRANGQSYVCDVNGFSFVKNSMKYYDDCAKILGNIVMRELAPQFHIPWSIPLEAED
Experimental: (§1) The initial InsP6 concentration was either 500 nM, 70 nM, or 40 nM. Various concentrations of 2,5-di-O-Bn-InsP4 were present as indicated. Radioactivity was assessed using an in-line Flo1 detector. The ADP-driven dephosphorylation of 100 nM 1,5-[PP]2-InsP4 by PPIP5K2^KD was usually determined by a luminescence-based assay of ATP accumulation ([Riley et al., 2012; Weaver et al., 2013]). The IC50 values were determined using GraphPad Prism v6.02 (n ≥ 3). In some experiments, 1,5-[PP]2-[^3H]InsP4 dephosphorylation by PPIP5K2^KD was assayed in 50 μl buffer containing 50 mM KCl, 20 mM HEPES pH 7.0, 7 mM MgSO4, 5 mM ADP, 1 mM EDTA. Reactions were then quenched, neutralized, and analyzed with HPLC using a Partisphere SAX column ([Weaver et al., 2013]); 1 ml fractions were collected for liquid scintillation spectrometry. The ATPase activity of PPIP5K2^KD (10–270 μg/ml) was assayed from Pi release following incubation at 37°C for 120–180 min in 20 μl reaction mixtures containing 20 mM Tris/HCl, pH 7.5, 10 mM ATP, 100 mM KCl, 0.1 mM EDTA, and 13 mM MgCl2.
Protein Expression, Purification, Crystallization and Structure Determination […]
The structure was further manually rebuilt with COOT and refined with PHENIX and
REFMAC from the CCP4 package. Ligand topology and parameter files were prepared using
the PRODRG server. The molecular graphics representations were prepared with the program
PyMol (Schrödinger, LLC). The 2D ligand-protein interaction diagrams were generated by
LigPlot+. Atomic coordinates and structure factors have been deposited with the Protein Data
Bank with accession codes: 4NZM, 4NZN, 4NZO.
Mutants were generated using a site-directed mutagenesis kit (Stratagene). Pairs of complementary
primers were designed as shown below, with mutagenic primers underlined (only 5’ primers are
All mutated constructs were sequenced. Mutant proteins were expressed and purified as for wild-

PPIP5K2^KD H194A mutant = target: T2, PPIP5K2^KD H194A mutant (Homo sapiens, UniProt O43314, H194A); experiment: ATPase activity of H194A mutant; details: data not shown
T2 construct: The kinase domain of human PPIP5K2 (PPIP5K2^KD; residues 1–366); made in house
T2 sequence (O43314 1-366 H194A): T1 sequence (O43314 1-366 E192G) with G192E, H194A
Experimental: as §1

[1] = target: T3, PPIP5K2^KD (kinase domain of human PPIP5K2) (Homo sapiens, UniProt O43314); experiment: Reverse-kinase assay: ADP-driven dephosphorylation of 1,5-[PP]2-InsP4, luminescence-based assay of ATP accumulation; details: for IC50: 100 nM [PP]2-InsP4, key of Figure 4B, n = 3, read-out: IC50, inhibition of ADP-driven dephosphorylation of [PP]2-InsP4
T3 construct: The kinase domain of human PPIP5K2 (PPIP5K2^KD; residues 1–366); made in house
T3 sequence (O43314 1-366): T1 sequence (O43314 1-366 E192G) with G192E
Experimental: The six compounds that were selected for the dose-response curves in the assays of ATP hydrolysis (Figure 4A) were now investigated for their effects upon diphosphoinositol polyphosphate metabolism by PPIP5K2^KD (Figure 4B). We used a high-throughput reverse-kinase assay that records ATP generated from ADP during the dephosphorylation of 100 nM 1,5-[PP]2-InsP4 ([Riley et al., 2012; Weaver et al., 2013]). Each of the tested analogs inhibited [PP]2-InsP4 metabolism by PPIP5K2^KD (Figure 4B). […] However, the inhibition by 2,5-di-O-Bn-InsP4 (10) was more unexpected because due to its bulk, and its less negative charge compared to physiological substrates, we predict it to be a poor ligand for the active site of the highly specific PPIP5K2^KD ([Wang et al., 2012]). Nevertheless, its ability to inhibit reverse-kinase activity was directly confirmed by high-performance liquid chromatography (HPLC) analysis of [PP]2-[^3H]InsP4 dephosphorylation (Figures S1A–S1C available online).
as §1

IC50 [1] [nM]	inhibition of [PP]2-InsP4 metabolism (in words) ([1]; 100 nM 1,5-[PP]2-InsP4, Figure 4B)	Compound	rate of ligand-stimulated ATPase activity vs wild-type (in words) (PPIP5K2^KD E192G mutant)	ATPase activity in the presence of analog (in words) (PPIP5K2^KD H194A mutant)
170		O=P(O)(O)O[C@@H]1[C@@H](OCc2ccccc2)[C@H](OP(=O)(O)O)[C@@H](OP(=O)(O)O)[C@@H](OCc2ccccc2)[C@H]1OP(=O)(O)O [compound 10, 2,5-di-O-Bn-InsP4]	neither of these particular mutations altered the rate	did not exhibit any detectable ATPase activity
420	equally efficient	O=C(CP(=O)(O)O)O[C@@H]1[C@@H](OP(=O)(O)O)[C@H](OP(=O)(O)O)[C@H](OCc2ccccc2)[C@H](OP(=O)(O)O)[C@H]1OP(=O)(O)O [compound 2, 2-O-benzyl-5-O-α-phosphonoacetyl-myo-inositol 1,3,4,6-tetrakisphosphate]	neither of these particular mutations altered the rate	did not exhibit any detectable ATPase activity
